Assay results from US11174250B2, “Substituted carboxamides as inhibitors of WDR5 protein-protein binding” (PROPELLON THERAPEUTICS INC., priority 2016, dated 2021).
Like-named read-outs stand apart in the source and are kept apart here.

Key:
[1] = target: WDR5 protein (Homo sapiens (Human), UniProt P61964); test: Surface Plasmon Resonance (SPR) assay; assay type: binding; settings: SPR; for residence time: τ=1/koff, read-out: Residence Time (t, min)
Description: Exemplary compounds of the application were dissolved in 100% DMSO at 10 mM, assayed fresh, and then stored at −20° C. for repeat studies and other experiments. Full length WDR5 with an N-terminal His tag and C-terminal AviTag (Avidity Inc.) was expressed in E. coli with coexpression of BirA to biotin label the protein in vivo. Purification was via Ni-NTA. The purified WDR5 protein has a molecular weight of 41976 Da.
SPR studies were performed using a Biacore™ T200 instrument (GE Health Sciences Inc.). Biotinylated WDR5 protein (approximately 3000RU) was stably captured to streptavidin coupled SA chips according to the manufacture's protocol (GE Health Sciences Inc.). The running buffer used was HBS-EP (20 mM Hepes pH 7.4, 150 mM NaCl, 3 mM EDTA, 0.05% P-20) plus 5% DMSO with a flow rate of 40p1/min. For SPR analysis, 5 different concentrations of each exemplary compound of the application were sprayed into 96 or 384 well plates using an HP D300 digital dispenser. […] Curve fitting and KD calculations were performed with the Biacore T200 Evaluation software (GE Health Sciences Inc).

[2] = target: MLL1-WRAD2 complex (Homo sapiens (Human), UniProt P61964); test: MLL1-WRAD2 enzyme assay (in vitro methyl transferase assay); assay type: biochemical; settings: MLL1-WRAD2 assay; read-out: In vitro MLL1 activity (IC50)
Description: Reaction was initiated with 1 μM 3H-SAM and incubated for 1 hour at 30° C. Reaction mixture was transferred to P81 filter-paper and washed with PBS before detection.

[3] = system: MV4-11 cells; test: Cell proliferation assay (ATPlite); assay type: cell-based; settings: Homo sapiens, MV4-11, 120 h; MV-411 cells, five days; read-out: In vitro whole cell potency in MV-411 cells, (IC50)
Description: MV4-11 cells were seeded into a 96-well plate at 1,000 cells/well in 150 μl medium (Alpha-MEM containing 10% FBS, 100 μg/ml Normocin, and 50 μg/ml Gentamycin, Invitrogen). A HP D300 digital dispenser was used to dose cells with DMSO or test compounds across a 10-point range of concentrations (high dose of 10 μM), and cultures were grown in a humidified 5% CO2 incubator at 37° C. After five days, plates were removed from incubator and equilibrated to room temperature. An equal volume of ATPlite assay reagent was added to each well, and samples were processed according to manufacturer's instructions (Perkin Elmer). Luminescent signal was measured using an Envision plate reader equipped with a US-Luminescence detector.

[4] = Table 1, read-out: WDR5 binding affinity (KD)
[5] = Table 2, read-out: WDR5 binding affinity SPR (KD)

Kd [1, 4] [nM]	Kd [1, 5] [nM]	residence time [1] [min]	IC50 [2] [nM]	SMILES	IC50 [3] [nM]
5.4	5.4	2.36	2890	CN1CCN(c2ccc(-c3cc(CN4CC[C@@H](O)C4)ccc3F)cc2NC(=O)c2c[nH]c(=O)cc2C(F)(F)F)CC1 [Example 69, (R)—N-(2′-fluoro-5′-((3-hydroxypyrrolidin-1-yl)methyl)-4-(4-methylpiperazin-1-yl)-[1,1′-biphenyl]-3-yl)-6-oxo-4-(trifluoromethyl)-1,6-dihydropyridine-3-carboxamide]	> 10000
4.2	4.2	5.44	592	CN1CCN(c2ccc(-c3cc(CN4CCC(F)CC4)ccc3F)cc2NC(=O)c2c[nH]c(=O)cc2C(F)(F)F)CC1 [Example 73, N-(2′-fluoro-5′-((4-fluoropiperidin-1-yl)methyl)-4-(4-methylpiperazin-1-yl)-[1,1′-biphenyl]-3-yl)-6-oxo-4-(trifluoromethyl)-1,6-dihydropyridine-3-carboxamide]	502
69	69	0.23	> 30000	CN1CCN(c2ccc(-c3cc(CN4CCOCC4)ccc3F)cc2NC(=O)c2ccc(O)cc2C(F)(F)F)CC1 [Example 44, N-(2′-fluoro-4-(4-methylpiperazin-1-yl)-5′-(morpholinomethyl)-[1,1′-biphenyl]-3-yl)-4-hydroxy-2-(trifluoromethyl)benzamide]	–
262	262	0.42	26700	Cc1cc(=O)[nH]cc1C(=O)Nc1cc(-c2cc(CN3CCOCC3)ccc2F)ccc1N1CCN(C)CC1 [Example 29, N-(2′-fluoro-4-(4-methylpiperazin-1-yl)-5′-(morpholinomethyl)-[1,1′-biphenyl]-3-yl)-4-methyl-6-oxo-1,6-dihydropyridine-3-carboxamide]	–
4	4	0.12	> 30000	Cc1cc(C(=O)Nc2cc(-c3cc(CN4CCOCC4)ccc3F)ccc2N2CCN(C)CC2)ccc1F [Example 36, 4-fluoro-N-(2′-fluoro-4-(4-methylpiperazin-1-yl)-5′-(morpholinomethyl)-[1,1′-biphenyl]-3-yl)-3-methylbenzamide]	–
> 200	> 200	–	13500	CCN1CCN(c2ccc(-c3cc(CN4CCOCC4)ccc3F)cc2NC(=O)c2c[nH]c(=O)cc2C(F)(F)F)CC1 [Example 62, N-(4-(4-ethylpiperazin-1-yl)-2′-fluoro-5′-(morpholinomethyl)-[1,1′-biphenyl]-3-yl)-6-oxo-4-(trifluoromethyl)-1,6-dihydropyridine-3-carboxamide]	–
9.4	9.4	9.93	7300	CN1CCN(c2ccc(-c3cc(CN4CCOCC4)ccc3F)cc2NC(=O)c2c[nH]c(=O)cc2C(F)(F)F)CC1CO (centres unmarked) [Example 65, N-(2′-fluoro-4-(3-(hydroxymethyl)-4-methylpiperazin-1-yl)-5′-(morpholinomethyl)-[1,1′-biphenyl]-3-yl)-6-oxo-4-(trifluoromethyl)-1,6-dihydropyridine-3-carboxamide]	–
7	7	2.29	4490	CN1CCN(c2ccc(-c3cc(CN4CCOCC4)cnc3F)cc2NC(=O)c2c[nH]c(=O)cc2C(F)(F)F)CC1 [Example 61, N-(5-(2-fluoro-5-(morpholinomethyl)pyridin-3-yl)-2-(4-methylpiperazin-1-yl)phenyl)-6-oxo-4-(trifluoromethyl)-1,6-dihydropyridine-3-carboxamide]	–
6.5	6.4	3	1090	CNC(=O)c1ccc(F)c(-c2ccc(N3C[C@@H](C)N(C)[C@@H](C)C3)c(NC(=O)c3c[nH]c(=O)cc3C(F)(F)F)c2)c1 [Example 90, N-(2′-fluoro-5′-(methylcarbamoyl)-4-((3S,5R)-3,4,5-trimethylpiperazin-1-yl)-[1,1′-biphenyl]-3-yl)-6-oxo-4-(trifluoromethyl)-1,6-dihydropyridine-3-carboxamide]	–
5	5	5.85	1480	CN1CCN(c2ccc(-c3ccc(OC4CCOCC4)nc3F)cc2NC(=O)c2c[nH]c(=O)cc2C(F)(F)F)CC1 [Example 8, N-(5-(2-fluoro-6-((tetrahydro-2H-pyran-4-yl)oxy)pyridin-3-yl)-2-(4-methylpiperazin-1-yl)phenyl)-6-oxo-4-(trifluoromethyl)-1,6-dihydropyridine-3-carboxamide]	–
7	7	3.64	3250	CN1CCN(c2ccc(-c3cc(CN(C)C4COC4)ccc3F)cc2NC(=O)c2c[nH]c(=O)cc2C(F)(F)F)CC1 [Example 43, N-(2′-fluoro-5′-((methyl(oxetan-3-yl)amino)methyl)-4-(4-methylpiperazin-1-yl)-[1,1′-biphenyl]-3-yl)-6-oxo-4-(trifluoromethyl)-1,6-dihydropyridine-3-carboxamide]	–
1.7	1.7	20.6	293	CC1CN(c2ccc(-c3cc(C(=O)NC4CCCCC4)ccc3F)cc2NC(=O)c2c[nH]c(=O)cc2C(F)(F)F)CC(C)N1C (centres unmarked) [Example 124, N-(5′-(cyclohexylcarbamoyl)-2′-fluoro-4-(3,4,5-trimethylpiperazin-1-yl)-[1,1′-biphenyl]-3-yl)-6-oxo-4-(trifluoromethyl)-1,6-dihydropyridine-3-carboxamide]	–
9	9	2.52	6290	CN(C)Cc1ccc(F)c(-c2ccc(N3CCN(C)CC3)c(NC(=O)c3c[nH]c(=O)cc3C(F)(F)F)c2)c1 [Example 40, N-(5′-((dimethylamino)methyl)-2′-fluoro-4-(4-methylpiperazin-1-yl)-[1,1′-biphenyl]-3-yl)-6-oxo-4-(trifluoromethyl)-1,6-dihydropyridine-3-carboxamide]	–
8.2	8	5.5	2100	C[C@@H]1CN(c2ccc(-c3cc(CN(C)C4COC4)c(F)cc3F)cc2NC(=O)c2c[nH]c(=O)cc2C(F)(F)F)C[C@H](C)N1C [Example 113, N-(2′,4′-difluoro-5′-((methyl(oxetan-3-yl)amino)methyl)-4-((3S,5R)-3,4,5-trimethylpiperazin-1-yl)-[1,1′-biphenyl]-3-yl)-6-oxo-4-(trifluoromethyl)-1,6-dihydropyridine-3-carboxamide]	–
21	21	0.26	13700	CN1CCN(c2ccc(-c3ccc(CNC4CCCCC4)cc3F)cc2NC(=O)c2c[nH]c(=O)cc2C(F)(F)F)CC1 [Example 34, N-(4′-((cyclohexylamino)methyl)-2′-fluoro-4-(4-methylpiperazin-1-yl)-[1,1′-biphenyl]-3-yl)-6-oxo-4-(trifluoromethyl)-1,6-dihydropyridine-3-carboxamide]	–
7	7	9.5	1410	C[C@@H]1CN(c2ccc(-c3cc(CN4CCOCC4)cnc3F)cc2NC(=O)c2c[nH]c(=O)cc2C(F)(F)F)C[C@H](C)N1C [Example 60, N-(5-(2-fluoro-5-(morpholinomethyl)pyridin-3-yl)-2-((3S,5R)-3,4,5-trimethylpiperazin-1-yl)phenyl)-6-oxo-4-(trifluoromethyl)-1,6-dihydropyridine-3-carboxamide]	–

SMILES	Kd [1, 4] [nM]	Kd [1, 5] [nM]	residence time [1] [min]	IC50 [2] [nM]	IC50 [3] [nM]
CN1CCN(c2ccc(-c3cc(CN4C5COCC4C5)ccc3F)cc2NC(=O)c2c[nH]c(=O)cc2C(F)(F)F)CC1 [Example 74, N-(5′-(3-oxa-6-azabicyclo[3.1.1]heptan-6-ylmethyl)-2′-fluoro-4-(4-methylpiperazin-1-yl)-[1,1′-biphenyl]-3-yl)-6-oxo-4-(trifluoromethyl)-1,6-dihydropyridine-3-carboxamide]	4.8	4.8	–	1750	5430
CN1CCN(c2ccc(-c3cc(CNC4CCC(F)(F)CC4)ccc3F)cc2NC(=O)c2c[nH]c(=O)cc2C(F)(F)F)CC1 [Example 42, N-(5′-(((4,4-difluorocyclohexyl)amino)methyl)-2′-fluoro-4-(4-methylpiperazin-1-yl)-[1,1′-biphenyl]-3-yl)-6-oxo-4-(trifluoromethyl)-1,6-dihydropyridine-3-carboxamide]	5	5	4.43	2280	–
CN1CCN(c2ncc(-c3cc(CN4CCOCC4)ccc3F)cc2NC(=O)c2c[nH]c(=O)cc2C(F)(F)F)CC1 [Example 84, N-(5-(2-fluoro-5-(morpholinomethyl)phenyl)-2-(4-methylpiperazin-1-yl)pyridin-3-yl)-6-oxo-4-(trifluoromethyl)-1,6-dihydropyridine-3-carboxamide]	22	22	–	> 30000	–
CC1CN(c2ccc(-c3cc(CN4CCOCC4)ccc3F)cc2NC(=O)c2c[nH]c(=O)cc2C(F)(F)F)CCN1C (centres unmarked) [Example 26, N-(4-(3,4-dimethylpiperazin-1-yl)-2′-fluoro-5′-(morpholinomethyl)-[1,1′-biphenyl]-3-yl)-6-hydroxy-4-(trifluoromethyl)nicotinamide]	9	9	3.07	–	491
